Measured values published in ChEMBL document CHEMBL1153218, “Non-peptide entry inhibitors of HIV-1 that target the gp41 coiled coil pocket” (Bioorg Med Chem Lett, 2010).

Key:
[1] = Binding affinity to HIV1 envelope gp41 by NMR study; set-up: species or system Human immunodeficiency virus 1
[2] = Inhibition of HIV1 envelope gp41-mediated fusion of CHO cells expressing HIV1 envelope with calcein-AM labeled SupT1 cells by fluorescence assay; format: cell-based, Human immunodeficiency virus 1

Row | SMILES | Kd [1] [µM] | EC50 [2] [µM]
1 | O=C(O)c1ccccc1C(=O)N(Cc1cccc(Oc2ccc(Cl)cc2)c1)[C@H]1CCCc2ccccc21 |  | 3
2 | O=C(O)c1cc(C(=O)O)c(C(=O)N(Cc2cccc(OC3CCOCC3)c2)[C@H]2CCCc3ccccc32)cc1C(=O)O |  | > 250
3 | COc1ccc(-c2ccc(CN(C(=O)c3cc(C(=O)O)c(C(=O)O)cc3C(=O)O)[C@H]3CCCc4ccccc43)cc2)cc1 | 789 | 14
4 | O=C(O)c1cc(C(=O)O)c(C(=O)N(Cc2ccc3c(c2)Cc2ccccc2-3)[C@H]2CCCc3ccccc32)cc1C(=O)O |  | 26
5 | O=C(O)c1ccc(C(=O)N(Cc2cccc(Oc3ccccc3)c2)[C@H]2CCCc3ccccc32)cc1C(=O)O |  | 34
6 | CC(=O)N[C@H](CCCCN)C(=O)N[C@H](CCCCN)C(=O)NCC(=O)N[C@H](C)C(=O)N[C@@H]1CSSC[C@H](C(=O)N[C@H](C)C(=O)N[C@H](C)C(N)=O)NC(=O)[C@@H](CC(C)C)NC(=O)[C@@H](Cc2c[nH]c3ccccc23)NC(=O)[C@@H](C)NC(=O)[C@@H](Cc2c[nH]c3ccccc23)NC(=O)[C@@H](CCC(=O)O)NC(=O)[C@@H](Cc2c[nH]c3ccccc23)NC(=O)CNC(=O)[C@@H](CC(C)C)NC(=O)[C@@H](CC(C)C)NC(=O)[C@@H](CCC(=O)O)NC1=O |  | 19
7 | O=C(O)c1cc(C(=O)O)c(C(=O)N(Cc2cccc(Oc3ccccc3)c2)[C@H]2CCCc3ccccc32)cc1C(=O)O [A-317491] |  | 13

Results, then the molecule that gave them:

Row | Kd [1] [µM] | EC50 [2] [µM] | SMILES
8 | > 5000 |  | O=C(O)c1ccccc1C(=O)N(Cc1cccc(Oc2ccccc2)c1)Cc1ccccn1
9 |  | 41 | O=C(O)c1cc(C(=O)O)cc(C(=O)N(Cc2cccc(Oc3ccccc3)c2)[C@H]2CCCc3ccccc32)c1
10 |  | 7 | O=C(O)c1ccccc1C(=O)N(Cc1cccc(Oc2ccccc2)c1)CC12CC3CC(CC(C3)C1)C2
11 |  | 9 | O=C(O)c1cc(C(=O)O)c(C(=O)N(Cc2ccc(-c3ccccc3Cl)cc2)[C@H]2CCCc3ccccc32)cc1C(=O)O
12 |  | 4 | O=C(O)c1cc(C(=O)O)c(C(=O)N(Cc2ccc(-c3cc(Cl)cc(Cl)c3)cc2)[C@H]2CCCc3ccccc32)cc1C(=O)O
13 |  | 16 | O=C(O)c1ccccc1C(=O)N(Cc1ccc(-c2ccccc2)cc1)[C@H]1CCCc2ccccc21
